Experimental data as given in US20230093099A1, “COMPOUNDS AND METHODS OF TREATING CANCERS” (CULLGEN (SHANGHAI), INC., priority 2019, published 2023).
Where two headings read alike, the source gives them in different places.

What was measured:
Assay type in all cases: cell-based
RS4;11 cells = assay: Cell viability assay (CellTiter-Glo) in RS4;11 cells; conditions: for IC50: Homo sapiens, 72 h; for cell viability inhibition in combination with pomalidomide: RS4;11, 3 days, pomalidomide at 10 μM (FIG. 4)
Summary of the method: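 RS4;11 cells seeded at 5000 per well, exposed for 3 days to 8- or 12-point 3-fold serial dilutions. Viability read by CellTiter-Glo luminescence; IC50 fitted by nonlinear least-squares regression.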

MV4;11 cells = assay: Cell viability assay (CellTiter-Glo) in MV4;11 cells; conditions: for IC50: Homo sapiens, 72 h, MV4;11, AML, cell viability, 3 days; for cell viability inhibition in combination with pomalidomide: MV4;11, 3 days, pomalidomide at 10 μM (FIG. 4)
Method: (§1) MV4;11, RS4;11, Kasumi-1, HEL and other cells were treated with NVP-BSK805, TG101209 or selected degraders for 3 days at indicated concentrations following a 3-fold serial dilution.
(§2) HEL, RS4;11, MV4;11, Kasumi-1 and other cells were cultured at 37° C. with 5% CO2 in RPMI 1640 or DMEM Medium supplemented with 10% fetal bovine serum. Cells were authenticated using the short tandem repeat (STR) assays. Mycoplasma test results were negative.
(§3) Cells were seeded at a density of 5000 cells per well in 96-well assay plates and treated with test compounds following a 8-point or 12-point 3-fold serial dilution. Three days later, cell viability was determined using the CellTiter-Glo assay kit according to the manufacturer's instructions. The dose-response curves were determined and IC50 values were calculated using the GraphPad Prism software following a nonlinear regression (least squares fit) method.

HL-60 cells = assay: Cell viability assay (CellTiter-Glo) in HL-60 cells; conditions: Homo sapiens, 72 h, HL-60, APL, 3 days
Method: as §1, §2, §3

MM.1S cells = assay: Cell viability assay (CellTiter-Glo) in MM.1S cells; conditions: Homo sapiens, MM1.S, 72 h, Multiple Myeloma, 3 days
Method: as §1, §2, §3

JAK2-V617F = molecular target: T1, JAK2-V617F (Homo sapiens, UniProt O60674, V617F); assay: Immunoblot of JAK2 protein level in HEL cells; conditions: 24 hours; for JAK2 protein level: HEL cells, immunoblot (FIG. 1)
T1 construct: immunoblot of JAK1/2/3 proteins expressed in HEL cells; endogenous in cells; host or cells: HEL cells
T1 sequence (O60674 whole entry V617F): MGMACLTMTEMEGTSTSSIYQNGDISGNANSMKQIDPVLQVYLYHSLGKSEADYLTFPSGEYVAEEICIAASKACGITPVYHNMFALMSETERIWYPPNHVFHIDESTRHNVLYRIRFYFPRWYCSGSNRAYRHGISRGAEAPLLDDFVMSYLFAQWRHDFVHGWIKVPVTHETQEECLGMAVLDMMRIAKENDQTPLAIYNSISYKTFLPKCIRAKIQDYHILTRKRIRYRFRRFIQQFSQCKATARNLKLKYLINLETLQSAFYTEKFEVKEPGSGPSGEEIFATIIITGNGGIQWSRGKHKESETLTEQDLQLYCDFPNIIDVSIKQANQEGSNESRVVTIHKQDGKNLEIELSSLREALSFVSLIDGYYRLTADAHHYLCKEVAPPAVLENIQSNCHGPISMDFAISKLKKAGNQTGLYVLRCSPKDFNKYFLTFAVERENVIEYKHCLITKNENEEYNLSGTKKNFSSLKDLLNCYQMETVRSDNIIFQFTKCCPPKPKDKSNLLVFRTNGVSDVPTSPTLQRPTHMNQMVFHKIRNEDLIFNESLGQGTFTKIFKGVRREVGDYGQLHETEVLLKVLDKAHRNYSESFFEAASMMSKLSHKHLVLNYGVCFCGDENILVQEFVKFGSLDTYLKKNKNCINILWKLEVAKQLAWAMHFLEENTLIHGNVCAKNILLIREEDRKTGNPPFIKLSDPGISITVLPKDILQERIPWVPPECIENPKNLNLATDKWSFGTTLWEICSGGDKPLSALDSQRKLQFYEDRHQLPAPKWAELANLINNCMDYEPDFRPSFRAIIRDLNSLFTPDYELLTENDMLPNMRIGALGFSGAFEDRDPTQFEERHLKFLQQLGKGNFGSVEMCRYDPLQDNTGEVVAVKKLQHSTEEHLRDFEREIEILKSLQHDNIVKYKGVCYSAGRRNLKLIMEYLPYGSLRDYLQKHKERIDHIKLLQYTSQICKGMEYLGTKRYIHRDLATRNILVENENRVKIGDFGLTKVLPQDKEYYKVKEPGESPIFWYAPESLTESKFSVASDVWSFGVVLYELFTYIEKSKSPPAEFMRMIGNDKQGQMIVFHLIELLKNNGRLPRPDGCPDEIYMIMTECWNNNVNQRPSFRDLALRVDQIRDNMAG
Method: HEL cells harboring JAK2-V617F mutation were treated with compounds at indicated concentrations for 24 hours. […] The concentrations required to reduce JAK2-V617 by 50% (DC50) were below 60 nM for compound JA-213.
as §2
(§4) Rabbit anti-JAK1 antibody (3344S), anti-JAK2 antibody (3230S), anti-JAK3 antibody (8827S), anti-TYK2 antibody (14193S), anti-FLT3 antibody (3462S), anti-RET antibody (14556S), anti-phospho-STAT3 (Tyr705) antibody (9145S) and anti-phospho-STAT5 (Tyr694) antibody (4322S) were purchased from Cell Signaling Technology. Rabbit anti-GSPT1 antibody (ab126090) was purchased from Abcam. HRP-conjugated anti-α-tubulin antibody was produced in house. Media and other cell culture reagents were purchased from Thermo Fisher. The CellTiter-Glo Luminescent Assay kit was purchased from Promega.
(§5) Cultured cells were washed with cold PBS once and lysed in cold RIPA buffer supplemented with protease inhibitors and phosphatase inhibitors (Beyotime Biotechnology). The solutions were then incubated at 4° C. for 30 minutes with gentle agitation to fully lyse cells. Cell lysates were centrifuged at 13,000 rpm for 10 minutes at 4° C. and pellets were discarded. Total protein concentrations in the lysates were determined by BCA assays (Beyotime Biotechnology). Cell lysates were mixed with Laemmli loading buffer to 1× and heated at 99° C. for 5 min. Proteins were resolved on SDS-PAGE and visualized by chemiluminescence. Images were taken by a ChemiDoc MP Imaging system (Bio-Rad). Protein bands were quantitated using the accompanied software provided by Bio-Rad.

JAK3 = molecular target: T2, JAK3 (Homo sapiens, UniProt P52333); assay: Immunoblot of JAK3 protein level in HEL cells; conditions: immunoblot (FIG. 1)
T2 construct: immunoblot of JAK1/2/3 proteins expressed in HEL cells; endogenous in cells; host or cells: HEL cells
T2 sequence (P52333 1-1124): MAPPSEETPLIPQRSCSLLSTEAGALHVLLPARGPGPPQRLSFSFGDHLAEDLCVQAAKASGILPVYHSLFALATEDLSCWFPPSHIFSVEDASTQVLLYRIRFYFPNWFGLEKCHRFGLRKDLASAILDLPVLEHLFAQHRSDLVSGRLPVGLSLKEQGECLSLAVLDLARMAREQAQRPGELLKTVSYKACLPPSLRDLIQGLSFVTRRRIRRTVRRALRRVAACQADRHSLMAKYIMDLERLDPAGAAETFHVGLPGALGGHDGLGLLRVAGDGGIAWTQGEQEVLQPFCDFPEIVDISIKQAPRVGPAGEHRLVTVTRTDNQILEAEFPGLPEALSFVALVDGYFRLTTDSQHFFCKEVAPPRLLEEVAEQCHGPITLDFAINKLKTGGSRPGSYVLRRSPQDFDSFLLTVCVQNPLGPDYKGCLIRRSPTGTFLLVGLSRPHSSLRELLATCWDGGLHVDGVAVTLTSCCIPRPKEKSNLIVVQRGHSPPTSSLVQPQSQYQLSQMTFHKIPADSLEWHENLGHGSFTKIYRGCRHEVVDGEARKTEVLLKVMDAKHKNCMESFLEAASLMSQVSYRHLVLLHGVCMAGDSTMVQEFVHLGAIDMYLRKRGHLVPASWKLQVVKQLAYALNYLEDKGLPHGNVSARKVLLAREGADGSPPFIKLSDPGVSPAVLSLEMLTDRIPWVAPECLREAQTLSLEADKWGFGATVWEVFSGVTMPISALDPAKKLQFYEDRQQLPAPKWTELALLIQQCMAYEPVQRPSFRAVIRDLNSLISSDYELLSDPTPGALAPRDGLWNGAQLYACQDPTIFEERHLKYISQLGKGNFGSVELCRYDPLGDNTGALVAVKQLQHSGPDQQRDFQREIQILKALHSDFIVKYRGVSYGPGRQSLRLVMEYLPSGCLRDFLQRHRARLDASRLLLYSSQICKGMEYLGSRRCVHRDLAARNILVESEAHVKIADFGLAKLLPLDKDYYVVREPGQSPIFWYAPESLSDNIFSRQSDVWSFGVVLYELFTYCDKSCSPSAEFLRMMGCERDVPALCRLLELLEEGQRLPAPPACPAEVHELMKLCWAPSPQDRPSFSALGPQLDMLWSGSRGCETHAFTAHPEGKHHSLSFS
Method: To confirm JA-189 and JA-213 are true JAK degraders, HEL cell were treated with these two compounds at various compounds concentrations.
as §2, §4
Cultured cells were washed with cold PBS once and lysed in cold RIPA buffer supplemented with protease inhibitors and phosphatase inhibitors (Beyotime Biotechnology). […] Total protein concentrations in the lysates were determined by BCA assays (Beyotime Biotechnology). […] Protein bands were quantitated using the accompanied software provided by Bio-Rad.

GSPT1 = molecular target: T3, GSPT1 (Homo sapiens, UniProt P15170); assay: Immunoblot of GSPT1 protein level in RS4;11 cells; conditions: 16 hours; for GSPT1 protein level: immunoblot (FIG. 5)
T3 construct: immunoblot of GSPT1 and tubulin expressed in RS4:11 cells; endogenous in cells; host or cells: RS4;11 cells
T3 sequence (P15170 whole entry): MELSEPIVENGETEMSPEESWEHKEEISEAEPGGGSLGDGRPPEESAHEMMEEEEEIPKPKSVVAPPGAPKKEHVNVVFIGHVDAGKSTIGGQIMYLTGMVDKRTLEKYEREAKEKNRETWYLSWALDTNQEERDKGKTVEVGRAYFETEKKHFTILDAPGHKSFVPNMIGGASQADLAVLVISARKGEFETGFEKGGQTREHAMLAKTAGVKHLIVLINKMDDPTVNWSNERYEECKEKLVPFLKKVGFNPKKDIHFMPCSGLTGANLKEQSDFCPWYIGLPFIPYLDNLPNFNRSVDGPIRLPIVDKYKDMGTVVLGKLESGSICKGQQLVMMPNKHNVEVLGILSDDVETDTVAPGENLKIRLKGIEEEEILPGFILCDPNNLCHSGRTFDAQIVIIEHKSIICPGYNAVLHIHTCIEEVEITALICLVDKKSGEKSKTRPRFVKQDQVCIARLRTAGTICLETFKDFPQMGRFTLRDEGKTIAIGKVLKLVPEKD
Method: RS4;11 cells were treated with compounds at indicated concentrations for 16 hours. […] The concentrations required to reduce GSPT1 by 50% (DC50) were below 2 nM for compound JA-189 and 10 nM JA213.
as §2, §4, §5

[1] = RS4;11 ALL cells treated for three days, read-out: cell viability inhibition IC50
[2] = RS4;11 cells, cell viability, 3 days, CellTiter-Glo, read-out: IC50

Row | DC50 (JAK2-V617F; HEL cells harboring JAK2-V617F, immunoblot, read-out: concentration required to reduce JAK2-V617 by 50% (DC50)) [nM] | SMILES | IC50 (RS4;11 cells; [1]) [nM] | IC50 (RS4;11 cells; [2]) [nM] | cell viability inhibition in combination with pomalidomide (RS4;11 cells) | IC50 (MV4;11 cells) [nM] | cell viability inhibition in combination with pomalidomide (MV4;11 cells) | IC50 (HL-60 cells) [nM] | IC50 (MM.1S cells) [nM] | JAK2 protein level (JAK2-V617F) | JAK3 protein level (JAK3) | GSPT1 protein level (GSPT1) | DC50 (GSPT1; immunoblot, read-out: concentration required to reduce GSPT1 by 50% (DC50)) [nM]
1 |  | O=C1CCC(N2C(=O)c3ccc(NCCCCCC(=O)N4CCC(n5cc(-c6cnc7cccc(-c8cc(F)c(CN9CCOCC9)c(F)c8)c7n6)cn5)CC4)cc3C2=O)C(=O)N1 (stereo not shown) [JA-189, 5-((6-(4-(4-(8-(3,5-difluoro-4-(morpholinomethyl)phenyl)quinoxalin-2-yl)-1H-pyrazol-1-yl)piperidin-1-yl)-6-oxohexyl)amino)-2-(2,6-dioxopiperidin-3-yl)isoindoline-1,3-dione] | < 100 | 2.03 | greatly reduce the potencies of the degraders | 7.93 | greatly reduce the potencies of the degraders | 2.54 | 2.27 | able to reduce JAK1, JAK2 and JAK3 protein levels | able to reduce JAK1, JAK2 and JAK3 protein levels | induced degradation of GSPT1 in a dose dependent manner | < 2
2 | < 60 | CS(=O)(=O)c1ccc(-c2cccc3nc(Nc4ccc(N5CCN(CC(=O)NCCCCCCCCNc6ccc7c(c6)C(=O)N(C6CCC(=O)NC6=O)C7=O)CC5)cc4)nn23)cc1 (stereo not shown) [JA-213] | < 100 | 8.45 | greatly reduce the potencies of the degraders | 19.6 | greatly reduce the potencies of the degraders | 19.2 | 23.1 | able to reduce JAK1, JAK2 and JAK3 protein levels | able to reduce JAK1, JAK2 and JAK3 protein levels | induced degradation of GSPT1 in a dose dependent manner | 
